Values joined by “and” are separate entries in the source; they are usually repeats but may differ in a detail not shown here. Identical values can stand only once.
Assays:
purified PARP protein = purified PARP protein (Homo sapiens, UniProt P09874); experiment: PARP enzyme inhibition assay; type: biochemical; settings: [32P]NAD+ incorporation, 500 μM NAD+, 25° C.; two values in a cell = tested twice; read-out: Inhibition Constant Ki
purified PARP protein, sequence (P09874 whole entry): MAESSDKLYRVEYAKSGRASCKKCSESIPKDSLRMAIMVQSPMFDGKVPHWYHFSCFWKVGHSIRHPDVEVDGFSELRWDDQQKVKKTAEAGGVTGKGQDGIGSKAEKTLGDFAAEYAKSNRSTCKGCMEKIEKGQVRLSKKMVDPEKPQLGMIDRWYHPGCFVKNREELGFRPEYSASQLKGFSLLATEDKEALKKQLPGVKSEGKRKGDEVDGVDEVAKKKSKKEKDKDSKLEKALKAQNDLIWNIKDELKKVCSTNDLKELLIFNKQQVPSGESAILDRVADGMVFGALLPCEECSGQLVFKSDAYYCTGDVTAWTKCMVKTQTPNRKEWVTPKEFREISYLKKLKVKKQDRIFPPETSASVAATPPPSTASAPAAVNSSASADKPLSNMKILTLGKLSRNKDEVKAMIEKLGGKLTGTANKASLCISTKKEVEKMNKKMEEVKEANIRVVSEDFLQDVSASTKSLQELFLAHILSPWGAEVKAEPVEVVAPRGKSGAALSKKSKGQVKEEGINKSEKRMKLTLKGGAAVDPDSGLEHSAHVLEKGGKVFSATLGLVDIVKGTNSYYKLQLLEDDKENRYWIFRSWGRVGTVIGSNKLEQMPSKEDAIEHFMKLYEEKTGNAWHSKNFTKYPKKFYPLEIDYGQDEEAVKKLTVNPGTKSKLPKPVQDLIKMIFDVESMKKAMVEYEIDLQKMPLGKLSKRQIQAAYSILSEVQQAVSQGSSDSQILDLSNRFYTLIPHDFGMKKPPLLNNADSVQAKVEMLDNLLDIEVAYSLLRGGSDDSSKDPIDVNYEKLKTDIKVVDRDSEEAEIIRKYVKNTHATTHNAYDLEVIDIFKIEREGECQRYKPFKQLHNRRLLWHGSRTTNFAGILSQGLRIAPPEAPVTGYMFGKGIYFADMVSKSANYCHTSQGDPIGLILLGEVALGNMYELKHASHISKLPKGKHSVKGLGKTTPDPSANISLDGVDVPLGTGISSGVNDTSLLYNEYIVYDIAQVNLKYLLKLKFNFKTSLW

| SMILES | Ki (purified PARP protein) | melting point |
| --- | --- | --- |
| Cn1cc2c3c(cccc31)C(=O)NCC2 [Compound 19, 1-N-Methyl-3,4,5,6-tetrahydro-1H-azepino[5,4,3-cd]indol-6-one] | 62 nM | 194 to 195 °C |
| O=C1NCCc2c(-c3ccc(C(F)(F)F)cc3)[nH]c3cccc1c23 [Compound 31, 2-(4-Trifluoromethyl-phenyl)-1,3,4,5-tetrahydro-azepino[5,4,3-cd]indol-6-one] | 5 nM | 208 to 209 °C |
| O=C1NCCc2c(-c3cc4ccccc4o3)[nH]c3cccc1c23 [Compound 32, 2-Benzofuran-2-yl-1,3,4,5-tetrahydro-azepino[5,4,3-cd]indol-6-one] | 11.3 nM | 207 °C (dec.) |
| O=C1NCCc2c(-c3cc(C(F)(F)F)cc(C(F)(F)F)c3)[nH]c3cccc1c23 [Compound 33, 2-(3,5-bis-Trifluoromethyl-phenyl)-1,3,4,5-tetrahydro-azepino[5,4,3-cd]indol-6-one] | 230 nM | 230 °C (dec.) |
| O=C1NCCc2c(-c3ccc(Br)cc3)[nH]c3cccc1c23 [Compound 34, 2-(4-Bromophenyl)-1,3,4,5-tetrahydro-azepino[5,4,3-cd]indol-6-one] | 3.9 nM | 160 °C (dec.) |
| CC(C)(C)c1ccc(-c2[nH]c3cccc4c3c2CCNC4=O)cc1 [Compound 36, 2-(4-tert-Butyl-phenyl)-1,3,4,5-tetrahydro-azepino[5,4,3-cd]indol-6-one] | 29 nM | 243 to 244 °C |
| O=C1NCCc2c(CCc3ccccc3)[nH]c3cccc1c23 [Compound 37, 2-Phenethyl-1,3,4,5-tetrahydro-azepino[5,4,3-cd]indol-6-one] | 24 nM | 207 to 208 °C |
| O=C1NCCc2c(-c3ccccc3Cl)[nH]c3cccc1c23 [Compound 38, 2-(2-Chlorophenyl)-1,3,4,5-tetrahydro-azepino[5,4,3-cd]indol-6-one] | 8.4 nM | 275 °C (dec.) |
| O=C1NCCc2c(-c3ccc(F)cc3F)[nH]c3cccc1c23 [Compound 39, 2-(2,4-Difluoro-phenyl)-1,3,4,5-tetrahydro-azepino[5,4,3-cd]indol-6-one] | 4.8 nM | 196 to 197 °C |
| O=C1NCCc2c(-c3cccc(Cl)c3)[nH]c3cccc1c23 [Compound 40, 2-(3-Chlorophenyl)-1,3,4,5-tetrahydro-azepino[5,4,3-cd]indol-6-one] | 5.2 nM | 147 to 149 °C |
| COC(=O)c1[nH]c2cccc3c2c1CCNC3=O [Compound 42, 6-Oxo-3,4,5,6-tetrahydro-1H-azepino[5,4,3-cd]indole-2-carboxylic acid methyl ester] | 5.1 nM | 266 to 267 °C |
| CC(=O)Nc1cccc(-c2[nH]c3cccc4c3c2CCNC4=O)c1 [Compound TT, N-[3-(6-Oxo-3,4,5,6-tetrahydro-1H-azepino[5,4,3-cd]indol-2-yl)-phenyl]-acetamide] | 12.2 nM and 4.2 nM | 300.5 to 302 °C |
| CCN(CC)CCc1ccc(-c2[nH]c3cccc4c3c2CCNC4=O)cc1 [Compound YY, 2-[4-(2-Diethylamino-ethyl)-phenyl]-3,4,5,6-tetrahydro-azepino[5,4,3-cd]indol-6-one] | 15.1 nM | 224 to 224.5 °C (dec.) |
| O=C1NCCc2c(-c3ccccc3O)[nH]c3cccc1c23 [DDD, 2-(2-Hydroxy-phenyl)-1,3,4,5-tetrahydro-azepino[5,4,3-cd]indol-6-one] | 23 nM | 305 °C (dec.) |
| N#Cc1[nH]c2cccc3c2c1CCNC3=O [EEE, 6-Oxo-3,4,5,6-tetrahydro-1H-azepino[5,4,3-cd]indole-2-carbonitrile] | 10.6 nM | 315 °C (dec.) |
| CSc1ccc(-c2[nH]c3cccc4c3c2CCNC4=O)cc1 [EEEE, 2-(4-Methylsulfanyl-phenyl)-1,3,4,5-tetrahydro-azepino[5,4,3-cd]indol-6-one] | 2.9 nM | 250 to 251 °C |
